Data as given in publication PMC12291913 (Antibiotics, 2025).
Values after ≈ are worked out from the molar mass of the structure shown. Values joined by “and” are separate entries in the source; they are usually repeats but may differ in a detail not shown here. Identical values can stand only once. Like-named read-outs stand apart in the source and are kept apart here.

What was measured:
[1] = test system: M. avium clinical isolate Koav 2 (WT); test: microbe, parasite or virus in culture; assay type: cell-based; details: Mycobacterium avium, drug alone, day 14
[2] = test system: M. avium clinical isolate Koav 15 (WT); test: microbe, parasite or virus in culture; assay type: cell-based; details: checkerboard; for MIC: Mycobacterium avium
[3] = test system: M. avium clinical isolate Koav 1 (WT); test: microbe, parasite or virus in culture; assay type: cell-based; details: Mycobacterium avium, drug alone, day 14, read-out: MIC
[4] = test system: M. avium clinical isolate Koav 13 (GyrA Asp95Gly); assay type: cell-based, M. avium subsp. hominissuis
[5] = test system: M. avium clinical isolate Koav 21 (WT); test: microbe, parasite or virus in culture; assay type: cell-based; details: checkerboard; for MIC: Mycobacterium avium
[6] = test system: M. avium clinical isolate Koav 11 (GyrA Asp95Tyr); assay type: cell-based, M. avium subsp. hominissuis
[7] = test system: M. avium clinical isolate Cl-A-2 (GyrA Asp95Tyr); assay type: cell-based, M. avium subsp. hominissuis
[8] = test system: M. avium clinical isolate Koav 19 (WT); test: microbe, parasite or virus in culture; assay type: cell-based; details: for MIC: Mycobacterium avium
[9] = test system: M. avium clinical isolate Cl-A-2 (GyrA Asp95Tyr); assay type: cell-based, M. avium subsp. hominissuis; remark: listed apart in the source
[10] = test system: M. avium clinical isolate Koav 3 (GyrA Asp95Gly); assay type: cell-based, M. avium subsp. hominissuis
[11] = test system: M. avium clinical isolate Koav 21 (WT); test: microbe, parasite or virus in culture; assay type: cell-based; details: Mycobacterium avium, drug alone, day 14, read-out: MIC
[12] = test system: M. avium clinical isolate Koav 25 (WT); test: microbe, parasite or virus in culture; assay type: cell-based; details: for FIC of INH or EMB: pair with WQ-3810; for MIC: Mycobacterium avium
[13] = test system: M. avium clinical isolate Koav 1 (WT); test: microbe, parasite or virus in culture; assay type: cell-based; details: checkerboard; for MIC of drug alone: single replicates; for MIC: Mycobacterium avium
[14] = test system: M. avium clinical isolate Koav 15 (WT); test: microbe, parasite or virus in culture; assay type: cell-based; details: Mycobacterium avium, drug alone, day 14, read-out: MIC
[15] = test system: M. avium clinical isolate Koav 25 (WT); test: microbe, parasite or virus in culture; assay type: cell-based; details: Mycobacterium avium, drug alone, day 14, read-out: MIC
[16] = test system: M. avium clinical isolate Koav 3 (GyrA Asp95Gly); assay type: cell-based, M. avium subsp. hominissuis; remark: listed apart in the source
[17] = test system: M. avium clinical isolate Koav 19 (WT); test: microbe, parasite or virus in culture; assay type: cell-based; details: Mycobacterium avium, drug alone, day 14, read-out: MIC
[18] = test system: M. avium clinical isolate Koav 20 (WT); test: microbe, parasite or virus in culture; assay type: cell-based; details: checkerboard; for MIC: Mycobacterium avium
[19] = test system: M. avium clinical isolate Koav 13 (GyrA Asp95Gly); assay type: cell-based, M. avium subsp. hominissuis; remark: listed apart in the source
[20] = test system: M. avium clinical isolate Koav 2 (WT); test: microbe, parasite or virus in culture; assay type: cell-based; details: checkerboard; for MIC: Mycobacterium avium
[21] = test system: M. avium clinical isolate Koav 20 (WT); test: microbe, parasite or virus in culture; assay type: cell-based; details: Mycobacterium avium, drug alone, day 14, read-out: MIC
[22] = test system: M. avium clinical isolate Koav 11 (GyrA Asp95Tyr); assay type: cell-based, M. avium subsp. hominissuis; remark: listed apart in the source
[23] = Koav 15 (K 15), WT, single replicates, read-out: MIC of drug alone
[24] = read-out: MIC of INH or EMB with 1 µg/ml MXF, Koav 15 (K 15), WT
[25] = read-out: MIC of INH or EMB with WQ-3810, Koav 15 (K 15), WT
[26] = Koav 21 (K 21), WT, single replicates, read-out: MIC of drug alone
[27] = read-out: MIC of INH or EMB with 1 µg/ml MXF, Koav 21 (K 21), WT
[28] = Koav 19 (K 19), WT, checkerboard, single replicates
[29] = Koav 19 (K 19), WT, pair with MXF
[30] = Koav 19 (K 19), WT, checkerboard, single replicates, read-out: MIC of drug alone
[31] = read-out: MIC of INH or EMB with 1 µg/ml MXF, Koav 19 (K 19), WT, checkerboard
[32] = Koav 25 (K 25), WT, checkerboard
[33] = Koav 25 (K 25), WT, checkerboard, single replicates, read-out: MIC of drug alone
[34] = read-out: MIC of INH or EMB with 1 µg/ml MXF, Koav 25 (K 25), WT, checkerboard
[35] = read-out: MIC of INH or EMB with WQ-3810, Koav 25 (K 25), WT, checkerboard
[36] = read-out: MIC of INH or EMB with WQ-3810, Koav 1 (K 1), WT
[37] = Koav 2 (K 2), WT, single replicates, read-out: MIC of drug alone
[38] = read-out: MIC of INH or EMB with WQ-3810, Koav 2 (K 2), WT

Structure (SMILES): CC[C@@H](CO)NCCN[C@@H](CC)CO [EMB, ethambutol]
- MIC [1]: 16 µg/mL (≈ 78.3 µM)
- MIC of INH or EMB with 1 µg/ml MXF ([2]; Koav 15 (K 15), WT): 4 µg/mL
- MIC of INH or EMB with WQ-3810 ([2]; Koav 15 (K 15), WT): 8 µg/mL
- MIC [2, 23]: 16 µg/mL
- MIC [2, 24]: 8 µg/mL
- MIC [2, 25]: 4 µg/mL
- MIC [3]: 2 µg/mL (≈ 9.79 µM)
- MIC of INH or EMB with 1 µg/ml MXF [4]: 16 µg/mL
- MIC of INH or EMB with WQ-3810 [4]: 8 µg/mL and 16 µg/mL
- MIC of drug alone [4]: 32 µg/mL
- MIC of INH or EMB with 1 µg/ml MXF ([5]; Koav 21 (K 21), WT): 1 µg/mL
- MIC [5, 26]: 32 µg/mL
- MIC [5, 27]: 2 µg/mL
- MIC ([5]; read-out: MIC of INH or EMB with WQ-3810, Koav 21 (K 21), WT): 16 µg/mL
- MIC [6]: 16 µg/mL (≈ 78.3 µM)
- MIC of INH or EMB with 1 µg/ml MXF [7]: 2 µg/mL and 4 µg/mL
- MIC of drug alone [7]: 16 µg/mL
- MIC of INH or EMB with WQ-3810 ([8]; Koav 19 (K 19), WT, checkerboard): 8 µg/mL
- MIC of drug alone [8, 28]: 16 µg/mL
- FIC of INH or EMB [8, 29]: 0.5 µg/mL
- FIC of INH or EMB ([8]; Koav 19 (K 19), WT, pair with WQ-3810): 0.5 µg/mL
- MIC [8, 30]: 8 µg/mL
- MIC [8, 31]: 8 µg/mL
- MIC ([8]; read-out: MIC of INH or EMB with WQ-3810, Koav 19 (K 19), WT, checkerboard): 4 µg/mL
- MIC [9]: 16 µg/mL (≈ 78.3 µM)
- MIC of INH or EMB with 1 µg/ml MXF [10]: 4 µg/mL and 2 µg/mL
- MIC [11]: 32 µg/mL (≈ 157 µM)
- MIC of INH or EMB with 1 µg/ml MXF [12, 32]: 8 µg/mL
- FIC of INH or EMB ([12]; Koav 25 (K 25), WT): 0.5 µg/mL
- MIC [12, 33]: 32 µg/mL
- MIC [12, 34]: 16 µg/mL
- MIC [12, 35]: 16 µg/mL
- MIC of INH or EMB with WQ-3810 ([13]; Koav 1 (K 1), WT): 2 µg/mL
- MIC of drug alone ([13]; Koav 1 (K 1), WT): 8 µg/mL and 4 µg/mL and 2 µg/mL
- MIC [13, 36]: 4 µg/mL
- MIC [14]: 16 µg/mL (≈ 78.3 µM)
- MIC [15]: 32 µg/mL (≈ 157 µM)
- MIC [16]: 16 µg/mL (≈ 78.3 µM)
- MIC [17]: 16 µg/mL (≈ 78.3 µM)
- MIC ([18]; Koav 20 (K 20), WT, single replicates, read-out: MIC of drug alone): 2 µg/mL
- MIC [19]: 32 µg/mL (≈ 157 µM)
- MIC of drug alone ([20]; Koav 2 (K 2), WT, single replicates): 32 µg/mL
- MIC [20, 37]: 16 µg/mL
- MIC [20, 38]: 8 µg/mL
- MIC [21]: 2 µg/mL (≈ 9.79 µM)

Structure (SMILES): NNC(=O)c1ccncc1 [INH, isoniazid]
- MIC [1]: 128 µg/mL (≈ 933 µM)
- MIC of INH or EMB with 1 µg/ml MXF ([2]; Koav 15 (K 15), WT): 4 µg/mL
- MIC of INH or EMB with WQ-3810 ([2]; Koav 15 (K 15), WT): 8 µg/mL
- MIC of drug alone ([2]; Koav 15 (K 15), WT, single replicates): 16 µg/mL
- MIC [2, 23]: 32 µg/mL
- MIC [2, 24]: 8 µg/mL
- MIC [2, 25]: 4 µg/mL
- MIC [3]: 8 µg/mL (≈ 58.3 µM)
- MIC of INH or EMB with 1 µg/ml MXF [4]: 8 µg/mL and 4 µg/mL
- MIC of INH or EMB with WQ-3810 [4]: 8 µg/mL and 4 µg/mL
- MIC of drug alone [4]: 32 µg/mL
- MIC [5, 26]: 16 µg/mL
- MIC [5, 27]: 1 µg/mL
- MIC [6]: 8 µg/mL (≈ 58.3 µM)
- FIC of INH or EMB [7]: 0.5 µg/mL and 0.25 µg/mL
- MIC of INH or EMB with 1 µg/ml MXF [7]: 2 µg/mL
- MIC of INH or EMB with WQ-3810 [7]: 2 µg/mL
- MIC of drug alone [7]: 4 µg/mL and 8 µg/mL
- MIC of drug alone [8, 28]: 16 µg/mL
- FIC of INH or EMB [8, 29]: 0.0625 µg/mL
- MIC [8, 30]: 8 µg/mL
- MIC [8, 31]: 1 µg/mL
- MIC [9]: 4 to 8 µg/mL
- MIC of INH or EMB with 1 µg/ml MXF [10]: 2 µg/mL and 1 µg/mL
- MIC of INH or EMB with WQ-3810 [10]: 2 µg/mL and 1 µg/mL
- MIC of drug alone [10]: 4 µg/mL and 8 µg/mL
- MIC [11]: 16 µg/mL (≈ 117 µM)
- MIC of INH or EMB with 1 µg/ml MXF [12, 32]: 1 µg/mL
- MIC of INH or EMB with WQ-3810 [12, 32]: 4 µg/mL
- MIC of drug alone ([12]; Koav 25 (K 25), WT, checkerboard, single replicates): 16 µg/mL
- FIC of INH or EMB ([12]; Koav 25 (K 25), WT): 0.25 µg/mL
- MIC [12, 33]: 8 µg/mL
- MIC [12, 34]: 2 µg/mL
- MIC [12, 35]: 2 µg/mL
- MIC of INH or EMB with 1 µg/ml MXF ([13]; Koav 1 (K 1), WT): 2 µg/mL
- MIC of INH or EMB with WQ-3810 ([13]; Koav 1 (K 1), WT): 8 µg/mL
- MIC of drug alone ([13]; Koav 1 (K 1), WT): 16 µg/mL and 32 µg/mL and 8 µg/mL
- MIC ([13]; read-out: MIC of INH or EMB with 1 µg/ml MXF, Koav 1 (K 1), WT): 1 µg/mL
- MIC [13, 36]: 4 µg/mL
- MIC [14]: 32 µg/mL (≈ 233 µM)
- MIC [15]: 8 µg/mL (≈ 58.3 µM)
- MIC [16]: 4 µg/mL (≈ 29.2 µM)
- MIC of INH or EMB with 1 µg/ml MXF [22]: 2 µg/mL
- MIC of INH or EMB with WQ-3810 [22]: 2 µg/mL
- MIC of drug alone [22]: 8 µg/mL and 16 µg/mL
- MIC [17]: 8 to 16 µg/mL (≈ 58.3 to 117 µM)
- MIC of INH or EMB with 1 µg/ml MXF ([18]; Koav 20 (K 20), WT): 4 µg/mL
- MIC of drug alone ([18]; Koav 20 (K 20), WT, single replicates): 32 µg/mL and 16 µg/mL and 64 µg/mL
- MIC ([18]; read-out: MIC of INH or EMB with 1 µg/ml MXF, Koav 20 (K 20), WT): 2 µg/mL
- MIC [19]: 32 µg/mL (≈ 233 µM)
- MIC [20, 37]: 128 µg/mL
- MIC ([20]; read-out: MIC of INH or EMB with 1 µg/ml MXF, Koav 2 (K 2), WT): 8 µg/mL
- MIC [20, 38]: 16 µg/mL
- MIC [21]: 16 µg/mL (≈ 117 µM)
